# “And” between values parts separate entries of the source, which are not always exact repeats. Identical values can stand only once.
# Test: Solution stability test (HPLC) of UDCA, branched chained amino acids and maltodextrin solution, Example IV
# Assay type: physicochemical
# Description: The stability tests were conducted on three different aqueous solution systems: […]. A bile acid and a high molecular weight aqueous soluble starch conversion product were combined in aqueous solution according to Example I, with results as shown in Tables 1A and 1B. • 2. Mixed bile acids and high molecular weight aqueous soluble starch conversion products were combined in aqueous solution according to Example II, with results as shown in Table 2. • 3. Bile acids, high molecular weight aqueous soluble starch conversion products and branched chained amino acids (e.g. leucine, isoleucine, valine, or other amino acid with a branched side chain) were combined in aqueous solution according to Example IV, with results as shown in Tables 3A through 3F. The stability tests were performed with HPLC and microscope light at various pH conditions under the normal and accelerated conditions. Accelerated conditions for testing pharmaceutical compositions have been described (Remington, The Science and Practice of Pharmacy, 19th ed., p. 640). […] Thus, the formulations of the examples are suitable for preparing a commercial liquid dosage form. […] Some formulations remain stable for over 2 years. Moreover, the solution stability tests were conducted on the aqueous solution dosage forms comprising the mixture of aqueous soluble UDCA, branched chained amino acid (leucine, isoleucine, valine) and maltodextrin according to example IV as a typical example of the solution dosage forms in which bile acid as a therapeutically active agent, as an adjuvant or carrier, pharmaceutically active agent, or enhancer of solubility, and high molecular weight aqueous soluble starch conversion products or soluble non-starch polysaccharides are dissolved. According to the test results, there is no discoloration, no clarity changes, and no precipitation. […] In the tables, the concentration of the indicated bile acid salt for each of the three numbered trials and the average thereof is reported on each line. The percentage indicates the relative concentration of the bile acid salt after incubation for a certain amount of time in comparison with the initial concentration. 85 mL of the aqueous solution in which soluble UDCA is dissolved was prepared, and then maltodextrin was added into the clear solution. Into the resulting clear solution, branched amino acids were added with adjusting the pH (4–7) with agitation and then sweetener, preservatives, and flavoring agent were added. Purified water was added to adjust the total volume to be 100 mL. Tables 3A to 3F show stability test results over time of formulation prepared with amino acids according to Example IV. All stability tests were conducted at 50° C. Stability test results at pH 1 (Table 3A), pH 3 (Table 3B), pH 5 (Table 3C), pH 7 (Table 3D), pH 9 (Table 3E), and pH 10 (Table 3F) are shown.
compound,measurement,setting,value
"CC[C@H](C)[C@H](N)C(=O)O [Ile, isoleucine]",Percentage of day 0 concentration,"Table 3C: pH 5, 50° C., day 17",98.3%
same,"concentration by HPLC, Average","Table 3C: pH 5, 50° C., day 17",0.275
same,"concentration by HPLC, trials #1-#3","Table 3C: pH 5, 50° C., day 17",0.278 and 0.276 and 0.270
same,Percentage of day 0 concentration,"Table 3C: pH 5, 50° C., day 20",95.0%
same,"concentration by HPLC, Average","Table 3C: pH 5, 50° C., day 20",0.266
same,"concentration by HPLC, trials #1-#3","Table 3C: pH 5, 50° C., day 20",0.261 and 0.275
same,Percentage of day 0 concentration,"Table 3C: pH 5, 50° C., day 24",99.3%
same,"concentration by HPLC, Average","Table 3C: pH 5, 50° C., day 24",0.277
same,"concentration by HPLC, trials #1-#3","Table 3C: pH 5, 50° C., day 24",0.267 and 0.274 and 0.292
same,Percentage of day 0 concentration,"Table 3D: pH 7, 50° C., day 0",100.0%
same,"concentration by HPLC, Average","Table 3D: pH 7, 50° C., day 0",0.289
same,"concentration by HPLC, trials #1-#3","Table 3D: pH 7, 50° C., day 0",0.296 and 0.289 and 0.281
same,Percentage of day 0 concentration,"Table 3D: pH 7, 50° C., day 5",99.7%
same,"concentration by HPLC, Average","Table 3D: pH 7, 50° C., day 5",0.288
same,"concentration by HPLC, trials #1-#3","Table 3D: pH 7, 50° C., day 5",0.300 and 0.282 and 0.281
same,Percentage of day 0 concentration,"Table 3D: pH 7, 50° C., day 8",95.5%
same,"concentration by HPLC, Average","Table 3D: pH 7, 50° C., day 8",0.276
same,"concentration by HPLC, trials #1-#3","Table 3D: pH 7, 50° C., day 8",0.277 and 0.282 and 0.268
same,Percentage of day 0 concentration,"Table 3D: pH 7, 50° C., day 12",95.8%
same,"concentration by HPLC, Average","Table 3D: pH 7, 50° C., day 12",0.277
same,"concentration by HPLC, trials #1-#3","Table 3D: pH 7, 50° C., day 12",0.273 and 0.278
same,Percentage of day 0 concentration,"Table 3D: pH 7, 50° C., day 15",93.5%
same,"concentration by HPLC, Average","Table 3D: pH 7, 50° C., day 15",0.270
same,"concentration by HPLC, trials #1-#3","Table 3D: pH 7, 50° C., day 15",0.271 and 0.273 and 0.266
same,Percentage of day 0 concentration,"Table 3D: pH 7, 50° C., day 19",99.3%
same,"concentration by HPLC, Average","Table 3D: pH 7, 50° C., day 19",0.287
same,"concentration by HPLC, trials #1-#3","Table 3D: pH 7, 50° C., day 19",0.294 and 0.285 and 0.281
same,Percentage of day 0 concentration,"Table 3E: pH 9, 50° C., day 0",100.0%
same,"concentration by HPLC, Average","Table 3E: pH 9, 50° C., day 0",0.286
same,"concentration by HPLC, trials #1-#3","Table 3E: pH 9, 50° C., day 0",0.291 and 0.286 and 0.282
same,Percentage of day 0 concentration,"Table 3E: pH 9, 50° C., day 3",95.6%
same,"concentration by HPLC, Average","Table 3E: pH 9, 50° C., day 3",0.273
same,"concentration by HPLC, trials #1-#3","Table 3E: pH 9, 50° C., day 3",0.266 and 0.273 and 0.282
same,Percentage of day 0 concentration,"Table 3E: pH 9, 50° C., day 6",95.9%
same,"concentration by HPLC, Average","Table 3E: pH 9, 50° C., day 6",0.274
same,"concentration by HPLC, trials #1-#3","Table 3E: pH 9, 50° C., day 6",0.277 and 0.274 and 0.272
same,Percentage of day 0 concentration,"Table 3E: pH 9, 50° C., day 10",91.2%
same,"concentration by HPLC, Average","Table 3E: pH 9, 50° C., day 10",0.261
same,"concentration by HPLC, trials #1-#3","Table 3E: pH 9, 50° C., day 10",0.243 and 0.245 and 0.295
same,Percentage of day 0 concentration,"Table 3E: pH 9, 50° C., day 13",87.4%
same,"concentration by HPLC, Average","Table 3E: pH 9, 50° C., day 13",0.250
same,"concentration by HPLC, trials #1-#3","Table 3E: pH 9, 50° C., day 13",0.246 and 0.269 and 0.236
same,Percentage of day 0 concentration,"Table 3E: pH 9, 50° C., day 17",93.1%
same,"concentration by HPLC, Average","Table 3E: pH 9, 50° C., day 17",0.267
same,"concentration by HPLC, trials #1-#3","Table 3E: pH 9, 50° C., day 17",0.275 and 0.280 and 0.245
same,Percentage of day 0 concentration,"Table 3F: pH 10, 50° C., day 0",100.0%
same,"concentration by HPLC, Average","Table 3F: pH 10, 50° C., day 0",0.287
same,"concentration by HPLC, trials #1-#3","Table 3F: pH 10, 50° C., day 0",0.292
same,Percentage of day 0 concentration,"Table 3F: pH 10, 50° C., day 2",84.7%
same,"concentration by HPLC, Average","Table 3F: pH 10, 50° C., day 2",0.243
same,Percentage of day 0 concentration,"Table 3F: pH 10, 50° C., day 5",76.0%
same,"concentration by HPLC, Average","Table 3F: pH 10, 50° C., day 5",0.218
same,Percentage of day 0 concentration,"Table 3F: pH 10, 50° C., day 7",74.5%
same,"concentration by HPLC, Average","Table 3F: pH 10, 50° C., day 7",0.214
same,Percentage of day 0 concentration,"Table 3F: pH 10, 50° C., day 9",70.2%
same,"concentration by HPLC, Average","Table 3F: pH 10, 50° C., day 9",0.202
same,"concentration by HPLC, trials #1-#3","Table 3F: pH 10, 50° C., day 9",0.206 and 0.192 and 0.207
